Reference: patent US5607969A, “L-DOPA ethyl ester to treat Parkinson's disease” (priority 1995, dated 1997)

Assay: Stability of L-DOPA ethyl ester prepared according to Examples 1 and 2 (Table 2)
Assay type: physicochemical
Design: key to COLOR: A: White with gray particles; B: Cream; C: WhiteYellow; D: Yellow; E: Dark Yellow; F: Gray; IMPURITIES: unit not given beside the values
Text: | STABILITY OF L-DOPA ESTER PREPARED

Row | COLOR (25° C. -N2, 1 m) | IMPURITIES (25° C. -N2, 1 m) | ASSAY (25° C. -N2, 1 m, 43200 min) | COLOR (25° C. -N2, 2 m) | IMPURITIES (25° C. -N2, 2 m) | ASSAY (25° C. -N2, 2 m, 86400 min) | COLOR (40° C., 1 m) | IMPURITIES (40° C., 1 m) | ASSAY (40° C., 1 m, 43200 min) | COLOR (40° C., 2 m) | IMPURITIES (40° C., 2 m) | ASSAY (40° C., 2 m, 86400 min) | ASSAY (t = 0) | COLOR (25° C. -N2, 4 m) | IMPURITIES (25° C. -N2, 4 m) | ASSAY (25° C. -N2, 4 m, 172800 min) | COLOR (40° C., 4 m) | ASSAY (40° C., 4 m, 172800 min) | IMPURITIES (40° C., 4 m) | Compound
1 | D | 16.9 | 83.1% | E | 17.2 | 84.4% | E | 20.9 | 82.6% | E | 19.3 | 80.0% | 87% | – | – | – | – | – | – | CCOC(=O)[C@@H](N)Cc1ccc(O)c(O)c1 [Example 2a, L-DOPA ethyl ester]
2 | D/E | 13.0 | 88.0% | D/E | 13.9 | 86.8% | D/E | 14.0 | 85.1% | D/E | 18.2 | 83.3% | 87.9% | D/E | 9.7 | 88.1% | F | 79.2% | – | CCOC(=O)[C@@H](N)Cc1ccc(O)c(O)c1 [Example 2b, L-DOPA ethyl ester]
3 | D | 5.6 | 94.0% | D/E | 5.1 | 93.6% | D | 5.7 | 91.7% | D/E | 4.8 | 93% | 95.8% | F | 5.6 | 94.1% | F | 93% | 6.4 | CCOC(=O)[C@@H](N)Cc1ccc(O)c(O)c1 [Example 2c, L-DOPA ethyl ester]
